Measurements published in patent US6902915B2, “Heat-stable D-aminoacylase” (Daicel Chemical Industries, Ltd., priority 2000, dated 2005).
Entries after “also recorded” stand apart in the source; their conditions may differ. Each block holds one compound with its values, some of them ahead of it.

Assays:
[1] = test system: D-aminoacylase derived from Streptomyces thermonitrificans; test: Effect of metal salt for D-aminoacylase; format: biochemical; settings: for Effect on enzyme activity (in words): 1 mM metal ion or EDTA
Method: (§1) The measurement of the enzyme activity was proceeded according to the TNBS method (Tokuyama, S., Hatano, K., and Takahashi, T., Biosci.Biotech.Biochem. 58:24(1994)). That is, the sample containing the amino acid was added to 0.5 ml of solution (C) (0.1 M Na2B4O7) to give a total volume of 1.0 ml. […] of 0.11 M TNBS solution was added with stirring immediately. The absorbance at 420 nm was measured after 5 minutes.
(§2) Various metal salt and various enzyme inhibitors were added to a concentration of 1 mM to the enzyme reaction, and measurement of the enzyme reaction was performed. The enzyme reaction was conducted in 50 mM Tris/HCl (pH 7.5) buffer (total volume of 500 μl). For the metal salt added reaction, 1 mM of each metal salt or EDTA was added to the standard reaction composition solution without the enzyme and was preincubated at 30° C. for 5 minutes, then enzyme was added to react at 30° C. for 60 minutes. For the enzyme inhibitor added reaction, the standard reaction solution without the substrate was preincubated at 5 minutes, then after adding 1 mM of each inhibitor […] the substrate was added, and the enzyme reaction was performed at 30° C. for 100 minutes. The relative activity was calculated taking activity of enzyme actions without addition of inhibitors as 100%.

[2] = test system: D-aminoacylase derived from Streptomyces thermonitrificans; test: Effect of inhibitors against D-aminoacylase; format: biochemical; settings: for Effect on enzyme activity (in words): SH reagents, 1 mM
Method: as §1, §2

[3] = test system: D-aminoacylase derived from Streptomyces thermonitrificans; test: Substrate specificity of D-aminoacylase; format: biochemical; settings: for Catalysis of the reaction with the substrate (in words): N-acetyl amino acid substrates; for Activity / Relative activity: substrate 20 mM; for Activity: 1 mM cobalt chloride, 50 mM Tris/HCl pH 7.5, 30° C., 60 minutes; for Relative activity: activity against N-acetyl-D-methionine taken as 100%
Method: The activity of the D-aminoacylase of the present invention can be tested by the following procedure. For example, an enzyme solution (100 μl) is mixed and incubated with 50 mM Tris-HCl (pH 7.5) buffer (total volume: 500 μl) containing 20 mM substrate (various N-acetyl-D-amino acids) at 30° C. for 60 minutes. By measuring the amounts of amino acid synthesized by this reaction, enzymatic activities for respective substrates can be compared with each other. Assay for amino acid is performed by the TNBS (trinitrobenzenesulfonic acid) method or the HPLC method.
as §1
D-methionine was measured colorimetrically using L-methionine as a standard, and the amount of enzyme-producing 1 μmol of D-methionine in 1 minute at 30° C. was determined 1 unit.
The substrate specificity of the enzyme of the present invention was compared taking the enzyme activity against N-acetyl-D-methionine as 100%. N-acetyl-D-valine, N-acetyl-D-phenylalanine, N-acetyl-D-leucine, N-acetyl-D-tryptophan, N-acetvl-D-alanine N-acetyl-L-methionine, N-acetyl-L-leucine, and N-acetyl-L-valine was used as the substrate for comparison. The enzyme activity was measured in a standard reaction solution (total volume of 500 μl containing 100 μl of enzyme solution, and 400 μl of 50 mM Tris/HCl (pH 7.5) containing 20 mM of each substrate and 1 mM cobalt chloride at 30° C. for 60 minutes. The substrate specificity for N-acetyls of D-methionine, D-leucine, D-valine, D-tryptophan, D-alanine and D-phenylalanine is depicted in Table 2.

[4] = in vivo; cited from earlier work
[5] = 1 mM metal salt or EDTA, 50 mM Tris/HCl pH 7.5, 30° C., 60 minutes
[6] = 1 mM metal salt or EDTA, no addition = 100%
[7] = 1 mM reagent, 50 mM Tris/HCl pH 7.5, 30° C., 100 minutes
[8] = 1 mM reagent, no addition = 100%

SMILES: [Ca+2].[Cl-].[Cl-] [CaCl2]
Activity [1, 5]: 31.1 mU/ml
Relative activity [1, 6]: 97%

SMILES: O=S(=O)(F)Cc1ccccc1 [Phenylmethylsulfonyl fluoride]
Activity [2, 7]: 29.5 mU/ml
Relative activity [2, 8]: 70%

Effect on enzyme activity (in words) [1]: inhibited
Activity [1, 5]: 9.4 mU/ml
Relative activity [1, 6]: 29%
SMILES: O=C(O)CN(CCN(CC(=O)O)CC(=O)O)CC(=O)O [EDTA]

Activity [3]: 0 mU/ml
Relative activity [3]: 0%
SMILES: CC(=O)N[C@H](C(=O)O)C(C)C [N-Ac-L-Val, N-acetyl-L-valine]
Catalysis of the reaction with the substrate (in words) [3]: didn't catalyze; also recorded: substantially no catalytic activity

Activity [2, 7]: 11.3 mU/ml
Relative activity [2, 8]: 24%
SMILES: [I-].[K+] [KI]

SMILES: O=C1CCC(N2C(=O)c3ccccc3C2=O)C(=O)N1 [D(R)-form thalidomide, thalidomide]
Teratogenic activity [4]: no teratogenic activity

SMILES: [Cl][Ni][Cl] [NiCl2]
Activity [1, 5]: 15.9 mU/ml
Relative activity [1, 6]: 51%

SMILES: [Cl][Sn][Cl] [SnCl2]
Activity [1, 5]: 32.8 mU/ml
Relative activity [1, 6]: 102%

SMILES: O=C(O)c1cc[c]([Hg][Cl])cc1 [p-Chloromercuribenzoic acid]
Activity [2, 7]: 2.1 mU/ml
Relative activity [2, 8]: 4%
Effect on enzyme activity (in words) [2]: inhibited

Activity [3]: 48.4 mU/ml
Relative activity [3]: 105%
SMILES: CC(=O)N[C@H](Cc1c[nH]c2ccccc12)C(=O)O [N-Ac-D-Trp, N-acetyl-D-tryptophan]
Catalysis of the reaction with the substrate (in words) [3]: efficiently catalyzes; also recorded: catalyze especially well

SMILES: [Cl][Cu][Cl] [CuCl2]
Effect on enzyme activity (in words) [1]: markedly inhibited
Activity [1, 5]: 1.0 mU/ml
Relative activity [1, 6]: 3%

SMILES: O=C(O)CI [Monoiodoacetic acid]
Relative activity [2]: 84%
Activity ([2]; pH 7.5): 37.9 mU/ml

SMILES: CCN1C(=O)C=CC1=O [N-Ethylmaleimide]
Activity [2, 7]: 1.3 mU/ml
Relative activity [2, 8]: 3%
Effect on enzyme activity (in words) [2]: inhibited

Activity [3]: 62.2 mU/ml
Relative activity [3]: 144%
SMILES: CC(=O)N[C@H](Cc1ccccc1)C(=O)O [N-Ac-D-Phe, N-acetyl-D-phenylalanine]
Catalysis of the reaction with the substrate (in words) [3]: efficiently catalyzes; also recorded: catalyze especially well

Activity [1, 5]: 25.2 mU/ml
Relative activity [1, 6]: 90%
SMILES: O=S(=O)([O-])[O-].O=S(=O)([O-])[O-].O=S(=O)([O-])[O-].[Al+3].[Al+3] [Al2(SO4)2]

SMILES: [Cl][Co][Cl] [CoCl2, cobalt chloride]
Effect on enzyme activity (in words) [1]: increased
Activity [1, 5]: 54.4 mU/ml
Relative activity [1, 6]: 168%

Activity [3]: 14.7 mU/ml
Relative activity [3]: 40%
SMILES: CC(=O)N[C@@H](C(=O)O)C(C)C [N-Ac-D-Val, N-acetyl-D-valine]
Catalysis of the reaction with the substrate (in words) [3]: catalyzes; also recorded: catalytic actions

SMILES: [Cl][Fe][Cl] [FeCl2]
Activity [1, 5]: 20.4 mU/ml
Relative activity [1, 6]: 63%

Activity [3]: 40.6 mU/ml
Relative activity [3]: 100%
SMILES: CSCC[C@@H](NC(C)=O)C(=O)O [N-Ac-D-Met, N-acetyl-D-methionine]
Catalysis of the reaction with the substrate (in words) [3]: efficiently catalyzes; also recorded: catalyze especially well

SMILES: O=C1CCC(N2C(=O)c3ccccc3C2=O)C(=O)N1 [L(S)-form, thalidomide]
Teratogenic activity [4]: strong teratogenicity

SMILES: [Cl-].[Cl-].[Mg+2] [MgCl2]
Activity [1, 5]: 35.2 mU/ml
Relative activity [1, 6]: 109%

SMILES: NO [Hydroxylammonium chloride]
Relative activity [2]: 102%
Activity [2, 7]: 46.5 mU/ml

SMILES: [Cl-].[K+] [KCl]
Activity [1, 5]: 30.9 mU/ml
Relative activity [1, 6]: 93%

Activity [2, 7]: 34.8 mU/ml
Relative activity [2, 8]: 76%
SMILES: O[C@@H](CS)[C@@H](O)CS [DTT]

SMILES: O=C(NNc1ccccc1)NNc1ccccc1 [1,5-Diphenylcarbonylhydrazide]
Activity [2, 7]: 40.5 mU/ml
Relative activity [2, 8]: 89%

Activity [3]: 0 mU/ml
Relative activity [3]: 0%
SMILES: CC(=O)N[C@@H](Cc1ccccc1)C(=O)O [N-Ac-L-Phe, N-acetyl-L-phenylalanine]
Catalysis of the reaction with the substrate (in words) [3]: didn't catalyze; also recorded: substantially no catalytic activity

Activity [3]: 16.9 mU/ml
Relative activity [3]: 40%
SMILES: CC(=O)N[C@H](C)C(=O)O [N-Ac-D-Ala, N-acetyl-D-alanine]
Catalysis of the reaction with the substrate (in words) [3]: catalyzes; also recorded: catalytic actions

SMILES: c1ccc(-c2ccccn2)nc1 [2,2′-Bipyridyl]
Activity [2, 7]: 21.9 mU/ml
Relative activity [2, 8]: 49%

SMILES: [Cl][Mn][Cl] [MnCl2]
Activity [1, 5]: 21.0 mU/ml
Relative activity [1, 6]: 65%

SMILES: [Cl-].[Cl-].[Zn+2] [ZnCl2]
Activity [1, 5]: 22.2 mU/ml
Relative activity [1, 6]: 68%

SMILES: [F-].[Na+] [NaF]
Activity [2, 7]: 45.2 mU/ml
Relative activity [2, 8]: 99%

SMILES: [Cl-].[Na+] [NaCl]
Relative activity [1]: 103%
Activity ([1]; pH 7.5): 33.1 mU/ml

SMILES: [Cl][Fe]([Cl])[Cl] [FeCl3]
Activity [1, 5]: 22.0 mU/ml
Relative activity [1, 6]: 68%

SMILES: [Ba+2].[Cl-].[Cl-] [BaCl2]
Activity [1, 5]: 30.6 mU/ml
Relative activity [1, 6]: 95%

Activity [3]: 0 mU/ml
Relative activity [3]: 0%
SMILES: CSCC[C@H](NC(C)=O)C(=O)O [N-Ac-L-Met, N-acetyl-L-methionine]
Catalysis of the reaction with the substrate (in words) [3]: didn't catalyze; also recorded: substantially no catalytic activity

Activity [3]: 8.93 mU/ml
Relative activity [3]: 21%
SMILES: CC(=O)N[C@H](CC(C)C)C(=O)O [N-Ac-D-Leu, N-acetyl-D-leucine]
Catalysis of the reaction with the substrate (in words) [3]: catalyzes; also recorded: catalytic actions
